Reference: US11090308B2, “Methods of treating liver disorders or lipid disorders with a THR-beta agonist” (Madrigal Pharmaceuticals, Inc., priority 2016, dated 2021)

What was measured:
Format in all cases: in vitro ADME
[1] = target: T1, CYP1A2 (Homo sapiens, UniProt P05177); assay: In vitro Cytochrome P-450 enzyme assay, CYP1A2
T1 sequence (P05177 1-516): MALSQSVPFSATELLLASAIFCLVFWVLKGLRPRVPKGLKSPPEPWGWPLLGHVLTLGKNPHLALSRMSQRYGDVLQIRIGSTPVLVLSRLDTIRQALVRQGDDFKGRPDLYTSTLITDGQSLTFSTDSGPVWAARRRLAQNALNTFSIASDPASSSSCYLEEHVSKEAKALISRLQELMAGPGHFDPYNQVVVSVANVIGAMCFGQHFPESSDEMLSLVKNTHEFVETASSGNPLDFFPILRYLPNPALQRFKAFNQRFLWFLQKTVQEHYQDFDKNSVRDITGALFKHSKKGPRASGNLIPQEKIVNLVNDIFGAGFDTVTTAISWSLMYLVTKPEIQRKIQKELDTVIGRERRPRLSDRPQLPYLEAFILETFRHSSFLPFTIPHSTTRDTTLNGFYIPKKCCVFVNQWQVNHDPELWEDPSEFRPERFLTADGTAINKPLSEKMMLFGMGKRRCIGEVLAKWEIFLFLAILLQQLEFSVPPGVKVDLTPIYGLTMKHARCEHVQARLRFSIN
Text: (§1) The following studies have been conducted: (a) in vitro drug protein binding, transporter (organic anion transporting polypeptide [OATP], P-glycoprotein [P-gp], breast cancer-related protein [BCRP], and multiple drug resistance protein 1 [MDR1]), and cytochrome P-450 enzyme assays to investigate absorption, distribution, and excretion; (b) in vivo MGL-3196 rat and dog oral PK and bioavailability studies; (c) in vivo ^14C-MGL-3196 rat and dog oral pharmacokinetics, absorption, excretion, and tissue distribution by quantitative whole-body autoradiography (QWBA) studies; and (d) liver disposition of MGL-3196 using an in vitro sandwiched hepatocyte model system (B-CLEAR® technology) in dog (SCDH) and human (SCHH) hepatocytes.

[2] = target: T2, OATP1B3 (Homo sapiens, UniProt Q9NPD5); assay: In vitro drug transporter assay, OATP1B3
T2 sequence (Q9NPD5 1-702): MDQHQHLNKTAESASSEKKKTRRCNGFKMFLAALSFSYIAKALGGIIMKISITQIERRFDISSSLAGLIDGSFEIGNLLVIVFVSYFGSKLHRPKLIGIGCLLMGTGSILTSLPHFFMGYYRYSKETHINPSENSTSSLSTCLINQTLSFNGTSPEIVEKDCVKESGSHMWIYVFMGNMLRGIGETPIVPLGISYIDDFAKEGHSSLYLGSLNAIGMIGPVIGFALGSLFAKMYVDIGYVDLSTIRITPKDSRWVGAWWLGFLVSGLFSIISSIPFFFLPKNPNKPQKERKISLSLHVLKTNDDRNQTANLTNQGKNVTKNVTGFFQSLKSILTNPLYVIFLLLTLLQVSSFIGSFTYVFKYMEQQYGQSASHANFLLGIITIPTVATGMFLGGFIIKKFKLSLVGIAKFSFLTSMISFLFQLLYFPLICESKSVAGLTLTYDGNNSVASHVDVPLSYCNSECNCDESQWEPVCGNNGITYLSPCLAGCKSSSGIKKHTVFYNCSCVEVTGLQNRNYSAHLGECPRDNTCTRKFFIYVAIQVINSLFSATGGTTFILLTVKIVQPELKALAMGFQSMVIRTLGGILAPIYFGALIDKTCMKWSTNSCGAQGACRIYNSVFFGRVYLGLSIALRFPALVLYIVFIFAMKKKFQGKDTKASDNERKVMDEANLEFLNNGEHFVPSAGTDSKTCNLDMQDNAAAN
Text: as §1

[3] = target: CYP2C19 (Homo sapiens, UniProt P33261); assay: In vitro Cytochrome P-450 enzyme assay, CYP2C19
CYP2C19, sequence (P33261 whole entry): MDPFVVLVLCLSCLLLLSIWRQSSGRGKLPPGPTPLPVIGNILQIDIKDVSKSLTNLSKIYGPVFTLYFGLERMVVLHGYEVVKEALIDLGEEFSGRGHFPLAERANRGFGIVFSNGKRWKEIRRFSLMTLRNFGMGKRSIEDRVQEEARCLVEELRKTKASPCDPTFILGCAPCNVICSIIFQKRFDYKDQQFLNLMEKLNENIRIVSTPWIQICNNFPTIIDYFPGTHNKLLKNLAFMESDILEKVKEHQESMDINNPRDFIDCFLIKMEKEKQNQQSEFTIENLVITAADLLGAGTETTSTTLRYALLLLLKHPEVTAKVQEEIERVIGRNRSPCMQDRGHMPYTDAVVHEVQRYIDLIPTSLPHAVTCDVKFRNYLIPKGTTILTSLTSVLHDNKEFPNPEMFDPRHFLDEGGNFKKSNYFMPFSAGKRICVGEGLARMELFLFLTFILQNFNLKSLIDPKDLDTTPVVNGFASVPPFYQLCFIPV

[4] = system: sandwich-cultured dog hepatocytes (SCDH); assay: Hepatobiliary disposition in sandwich-cultured dog hepatocytes (SCDH)
Text: as §1
Parameters determined: • Bile Accumulation=Total Accumulationplus(+)Buffer−Cellular AccumulationMinus(−)Buffer
[formula] • AUC=(Incubation Time)*(Analyte ConcentrationMedia) • In vitro biliary clearance:
[formula] • (Kp ratio reflects the extent of MGL-3196 accumulation in hepatocyte to the total MGL-3196 concentration in the buffer, outside of the hepatocyte).
(§2) MGL-3196 and its metabolite, MGL-3196-M1 (M1), were evaluated in sandwich-cultured human hepatocytes (SCHH) to evaluate the effects of temperature and concentration on total accumulation. Incubations were performed in presence of 4% bovine serum albumin (BSA) for 20 minutes at 37° C. and 4° C. across multiple concentrations (3, 10, 30, and 100 μM). Following the hepatic accumulation study, a species comparison of the hepatobiliary disposition of MGL-3196 (30 μM) and its metabolite, M1, was evaluated in SCHH and sandwich-cultured dog hepatocytes (SCDH) in the presence of 4% BSA.

[5] = target: CYP2D6 (Homo sapiens, UniProt P10635); assay: In vitro Cytochrome P-450 enzyme assay, CYP2D6
CYP2D6, sequence (P10635 whole entry): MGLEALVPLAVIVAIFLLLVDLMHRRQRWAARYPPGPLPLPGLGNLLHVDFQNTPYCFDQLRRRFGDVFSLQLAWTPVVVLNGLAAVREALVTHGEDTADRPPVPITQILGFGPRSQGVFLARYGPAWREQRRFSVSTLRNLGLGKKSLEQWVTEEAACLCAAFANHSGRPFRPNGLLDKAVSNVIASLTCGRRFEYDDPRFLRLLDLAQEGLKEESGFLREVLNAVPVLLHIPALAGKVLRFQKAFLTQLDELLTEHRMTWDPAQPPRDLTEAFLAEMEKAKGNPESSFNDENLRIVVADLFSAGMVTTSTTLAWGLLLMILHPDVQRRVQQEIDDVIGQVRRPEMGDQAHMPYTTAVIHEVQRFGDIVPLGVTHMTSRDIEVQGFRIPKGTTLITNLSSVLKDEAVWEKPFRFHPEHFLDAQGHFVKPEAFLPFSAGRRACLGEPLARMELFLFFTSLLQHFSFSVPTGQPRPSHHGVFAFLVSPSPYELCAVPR
Text: as §1

[6] = system: sandwich-cultured human hepatocytes (SCHH); assay: Effects of temperature and concentration on total accumulation in SCHH
Procedure: as §2

[7] = SCDH, 20 min exposure to MGL-3196 30 μM, 4% BSA

For `CC(C)c1cc(Oc2c(Cl)cc(-n3nc(C#N)c(=O)[nH]c3=O)cc2Cl)n[nH]c1=O` [MGL-3196, 2-(3,5-dichloro-4-((5-isopropyl-6-oxo-1,6-dihydropyridazin-3-yl)oxy)phenyl)-3,5-dioxo-2,3,4,5-tetrahydro-1,2,4-triazine-6-carbonitrile], the “Inhibitor of: CYP1A2” value [1] was “not an inhibitor”, the “Substrate for: OATP1B3” value [2] was “OATP1B3;” and the “Inhibitor of: OATP1B3, % inhibition” value ([2]; @ 10 uM Pravastatin) was “OATP1B3 (57% @ 10 uM Pravastatin)”. The “Inhibitor of: CYP2C19” value [3] was “not an inhibitor”, the “Total accumulation in SCDH lower than in SCHH” value ([4]; 30 μM, 20-minute exposure) was about 81% and the “biliary clearance estimates lower in dog than human hepatocytes” value ([4]; SCDH vs SCHH) was about 46%. The “BEI (Biliary Excretion Index)” value [4, 7] was 48.7%, the “Bile Acc.” value [4, 7] was 86.2 pmol/mg and the “Cellular Acc.” value [4, 7] was 80.3 pmol/mg. For the same compound, the “ClBiliary (in vitro biliary clearance)” value [4, 7] was 0.784 mL/min/kg, the “ICC (intracellular concentration)” value [4, 7] was 10.4 µM and the Kp [4, 7] was 0.348 Ratio. The “Total Acc.” value [4, 7] was 167 pmol/mg, the “Inhibitor of: CYP2D6” value [5] was “not an inhibitor” and the “share of total accumulation (hepatocytes+bile) mediated by an active uptake process (temperature-dependent)” value ([6]; 37° C. vs 4° C., 20 minutes, 4% BSA, 3, 10, 30, 100 μM) was at least 72.8%.
In the case of `CC(CO)c1cc(Oc2c(Cl)cc(-n3nc(C#N)c(=O)[nH]c3=O)cc2Cl)n[nH]c1=O` (stereo not drawn) [MGL-3623], the IC50 ([1]; read-out: Inhibitor of: CYP1A2, IC50) is reported as over 50 µM, the “Substrate for: OATP1B3” value [2] is reported as “OATP1B3” and the IC50 ([2]; weak, read-out: Inhibitor of: OATP1B3, IC50) is reported as 22.6 µM. The IC50 ([3]; range given jointly for CYP2B6, CYP2C9, CYP2C19, weak, read-out: Inhibitor of: CYP2C19, IC50) was 24 to 35 µM, the “Cellular Acc.” value [4, 7] was “BLQ” and the “PIS (post incubation supernatant, cell culture media)” value [4, 7] was “BLQ”. The “Total Acc.” value [4, 7] was “BLQ”, the IC50 ([5]; read-out: Inhibitor of: CYP2D6, IC50) was over 50 µM and the “reduction of accumulation in 4° C. incubations” value ([6]; across all MGL-3196 exposure levels examined) was at least 65%.
